Numbers after ± are expanded uncertainties.
Legend:
[1] = molar heat capacity at constant pressure; settings: Liquid, calorimeter with the thermal relaxation.
[2] = molar heat capacity at constant pressure; xn = mol fraction of the nth substance listed; settings: Liquid, calorimeter with the thermal relaxation.

N [ammonia]
molar heat capacity at constant pressure ([1]; 280 K, 1000 kPa): 76.81 ± 2 J/K/mol | molar heat capacity at constant pressure ([1]; 280 K, 5000 kPa): 75.62 ± 4.6 J/K/mol | molar heat capacity at constant pressure ([1]; 300 K, 5000 kPa): 76.81 ± 3.4 J/K/mol | molar heat capacity at constant pressure ([1]; 320 K, 5000 kPa): 77.83 ± 2 J/K/mol | molar heat capacity at constant pressure ([1]; 360 K, 5000 kPa): 95.2 ± 1.7 J/K/mol | molar heat capacity at constant pressure ([1]; 360 K, 10000 kPa): 92.82 ± 1.7 J/K/mol | molar heat capacity at constant pressure ([1]; 360 K, 15000 kPa): 90.26 ± 3.1 J/K/mol

N [ammonia] + O
molar heat capacity at constant pressure ([2]; 280 K, 100 kPa, x2 = 0.7061): 68.95 ± 1.4 J/K/mol | molar heat capacity at constant pressure ([2]; 280 K, 100 kPa, x2 = 0.8489): 70.04 ± 1.4 J/K/mol | molar heat capacity at constant pressure ([2]; 280 K, 1000 kPa, x2 = 0): 76.81 ± 2 J/K/mol | molar heat capacity at constant pressure ([2]; 280 K, 1000 kPa, x2 = 0.1566): 76.13 ± 1.9 J/K/mol | molar heat capacity at constant pressure ([2]; 280 K, 1000 kPa, x2 = 0.303): 71.92 ± 1.7 J/K/mol | molar heat capacity at constant pressure ([2]; 280 K, 1000 kPa, x2 = 0.4956): 76.38 ± 1.6 J/K/mol | molar heat capacity at constant pressure ([2]; 280 K, 1000 kPa, x2 = 0.7061): 69.48 ± 1.6 J/K/mol | molar heat capacity at constant pressure ([2]; 280 K, 1000 kPa, x2 = 0.8489): 70.93 ± 1.4 J/K/mol | molar heat capacity at constant pressure ([2]; 280 K, 5000 kPa, x2 = 0): 75.62 ± 4.6 J/K/mol | molar heat capacity at constant pressure ([2]; 280 K, 5000 kPa, x2 = 0.1566): 74.58 ± 4.3 J/K/mol | molar heat capacity at constant pressure ([2]; 280 K, 5000 kPa, x2 = 0.303): 74.17 ± 4 J/K/mol | molar heat capacity at constant pressure ([2]; 280 K, 5000 kPa, x2 = 0.4956): 76.03 ± 3.9 J/K/mol | molar heat capacity at constant pressure ([2]; 280 K, 5000 kPa, x2 = 0.7061): 72.68 ± 3.7 J/K/mol | molar heat capacity at constant pressure ([2]; 280 K, 5000 kPa, x2 = 0.8489): 72.89 ± 3.6 J/K/mol | molar heat capacity at constant pressure ([2]; 300 K, 100 kPa, x2 = 0.8489): 73.25 ± 0.54 J/K/mol | molar heat capacity at constant pressure ([2]; 300 K, 1000 kPa, x2 = 0.1566): 78.19 ± 2.9 J/K/mol | molar heat capacity at constant pressure ([2]; 300 K, 1000 kPa, x2 = 0.303): 77.63 ± 2.8 J/K/mol | molar heat capacity at constant pressure ([2]; 300 K, 1000 kPa, x2 = 0.4956): 80.94 ± 2.8 J/K/mol | molar heat capacity at constant pressure ([2]; 300 K, 1000 kPa, x2 = 0.7061): 75.33 ± 2.7 J/K/mol | molar heat capacity at constant pressure ([2]; 300 K, 1000 kPa, x2 = 0.8489): 74.86 ± 2.5 J/K/mol | molar heat capacity at constant pressure ([2]; 300 K, 5000 kPa, x2 = 0): 76.81 ± 3.4 J/K/mol | molar heat capacity at constant pressure ([2]; 300 K, 5000 kPa, x2 = 0.1566): 76.13 ± 3.3 J/K/mol | molar heat capacity at constant pressure ([2]; 300 K, 5000 kPa, x2 = 0.303): 77.29 ± 3.1 J/K/mol | molar heat capacity at constant pressure ([2]; 300 K, 5000 kPa, x2 = 0.4956): 78.83 ± 3 J/K/mol | molar heat capacity at constant pressure ([2]; 300 K, 5000 kPa, x2 = 0.7061): 76.58 ± 2.8 J/K/mol | molar heat capacity at constant pressure ([2]; 300 K, 5000 kPa, x2 = 0.8489): 74.86 ± 2.7 J/K/mol | molar heat capacity at constant pressure ([2]; 320 K, 1000 kPa, x2 = 0.4956): 79.71 ± 2.1 J/K/mol | molar heat capacity at constant pressure ([2]; 320 K, 1000 kPa, x2 = 0.7061): 75.51 ± 1.9 J/K/mol | molar heat capacity at constant pressure ([2]; 320 K, 1000 kPa, x2 = 0.8489): 73.97 ± 2 J/K/mol | molar heat capacity at constant pressure ([2]; 320 K, 5000 kPa, x2 = 0): 77.83 ± 2 J/K/mol | molar heat capacity at constant pressure ([2]; 320 K, 5000 kPa, x2 = 0.1566): 77.85 ± 1.9 J/K/mol | molar heat capacity at constant pressure ([2]; 320 K, 5000 kPa, x2 = 0.303): 80.93 ± 1.7 J/K/mol | molar heat capacity at constant pressure ([2]; 320 K, 5000 kPa, x2 = 0.4956): 82.86 ± 1.8 J/K/mol | molar heat capacity at constant pressure ([2]; 320 K, 5000 kPa, x2 = 0.7061): 79.41 ± 1.6 J/K/mol | molar heat capacity at constant pressure ([2]; 320 K, 5000 kPa, x2 = 0.8489): 77.18 ± 1.6 J/K/mol | molar heat capacity at constant pressure ([2]; 360 K, 1000 kPa, x2 = 0.7061): 79.77 ± 1.1 J/K/mol | molar heat capacity at constant pressure ([2]; 360 K, 1000 kPa, x2 = 0.8489): 76.11 ± 0.89 J/K/mol | molar heat capacity at constant pressure ([2]; 360 K, 5000 kPa, x2 = 0): 95.2 ± 1.7 J/K/mol | molar heat capacity at constant pressure ([2]; 360 K, 5000 kPa, x2 = 0.1597): 85.94 ± 1.4 J/K/mol | molar heat capacity at constant pressure ([2]; 360 K, 5000 kPa, x2 = 0.3048): 84.92 ± 1.2 J/K/mol | molar heat capacity at constant pressure ([2]; 360 K, 5000 kPa, x2 = 0.4956): 83.21 ± 1.2 J/K/mol | molar heat capacity at constant pressure ([2]; 360 K, 5000 kPa, x2 = 0.7061): 81.72 ± 1.1 J/K/mol | molar heat capacity at constant pressure ([2]; 360 K, 5000 kPa, x2 = 0.8489): 77.54 ± 1.1 J/K/mol | molar heat capacity at constant pressure ([2]; 360 K, 10000 kPa, x2 = 0): 92.82 ± 1.7 J/K/mol | molar heat capacity at constant pressure ([2]; 360 K, 10000 kPa, x2 = 0.1597): 86.97 ± 1.4 J/K/mol | molar heat capacity at constant pressure ([2]; 360 K, 10000 kPa, x2 = 0.3048): 88.21 ± 1.4 J/K/mol | molar heat capacity at constant pressure ([2]; 360 K, 10000 kPa, x2 = 0.4956): 85.32 ± 1.1 J/K/mol | molar heat capacity at constant pressure ([2]; 360 K, 10000 kPa, x2 = 0.7061): 84.55 ± 1.1 J/K/mol | molar heat capacity at constant pressure ([2]; 360 K, 10000 kPa, x2 = 0.8489): 80.04 ± 1.1 J/K/mol | molar heat capacity at constant pressure ([2]; 360 K, 15000 kPa, x2 = 0): 90.26 ± 3.1 J/K/mol | molar heat capacity at constant pressure ([2]; 360 K, 15000 kPa, x2 = 0.1597): 86.11 ± 2.6 J/K/mol | molar heat capacity at constant pressure ([2]; 360 K, 15000 kPa, x2 = 0.3048): 86.65 ± 2.4 J/K/mol | molar heat capacity at constant pressure ([2]; 360 K, 15000 kPa, x2 = 0.4956): 85.84 ± 2.3 J/K/mol | molar heat capacity at constant pressure ([2]; 360 K, 15000 kPa, x2 = 0.7061): 84.73 ± 2.1 J/K/mol | molar heat capacity at constant pressure ([2]; 360 K, 15000 kPa, x2 = 0.8489): 79.69 ± 2.1 J/K/mol

Reference: the NIST ThermoML archive (doi:10.1016/j.jct.2007.06.013)
